US11111237B2, “Bicyclic compound and use thereof” (SK BIOPHARMACEUTICALS CO., LTD., priority 2019, dated 2021)

Biological target: PRMT5-MEP50 enzyme complex (Homo sapiens (Human), UniProt O14744)
Experiment: PRMT5 enzyme activity in vitro assay (methylation of histone H4R3, ELISA absorbance at 450 nm)
Type: biochemical
Conditions: SAM, histone H4 peptide, room temperature 2 hours, 8 points from 10 μM to 0.128 nM
In short: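 IC50 was derived from ELISA absorbance at 450 nm, using primary and HRP antibodies against H4R3 methylation on immobilised histone H4 peptide (residues 1-20). Compounds (10 μM to 0.128 nM, 8 points, 1:5) were incubated 2 h at room temperature with the PRMT5-MEP50 complex and SAM, diluted to 5 μg/mL and 2 μM respectively.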

Chain of PRMT5-MEP50 enzyme complex (O14744 2-637): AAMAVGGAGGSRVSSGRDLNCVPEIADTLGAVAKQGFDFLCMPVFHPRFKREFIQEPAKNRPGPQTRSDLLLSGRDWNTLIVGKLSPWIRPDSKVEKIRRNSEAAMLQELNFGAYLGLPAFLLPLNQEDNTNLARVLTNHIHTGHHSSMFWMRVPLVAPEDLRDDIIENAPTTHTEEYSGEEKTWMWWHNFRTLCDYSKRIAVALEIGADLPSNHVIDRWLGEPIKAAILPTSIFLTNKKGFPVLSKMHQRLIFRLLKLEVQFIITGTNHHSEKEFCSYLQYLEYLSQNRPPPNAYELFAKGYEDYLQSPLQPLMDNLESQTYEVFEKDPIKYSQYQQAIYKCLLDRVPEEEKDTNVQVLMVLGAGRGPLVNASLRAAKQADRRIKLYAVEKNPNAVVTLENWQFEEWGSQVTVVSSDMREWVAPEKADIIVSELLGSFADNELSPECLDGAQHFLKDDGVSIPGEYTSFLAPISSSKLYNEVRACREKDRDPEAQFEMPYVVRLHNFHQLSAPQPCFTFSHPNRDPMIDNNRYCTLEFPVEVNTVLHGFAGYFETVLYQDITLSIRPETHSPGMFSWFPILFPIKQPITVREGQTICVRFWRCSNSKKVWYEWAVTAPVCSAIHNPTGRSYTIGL
Chain of PRMT5-MEP50 enzyme complex (Q9BQA1 2-342 partner): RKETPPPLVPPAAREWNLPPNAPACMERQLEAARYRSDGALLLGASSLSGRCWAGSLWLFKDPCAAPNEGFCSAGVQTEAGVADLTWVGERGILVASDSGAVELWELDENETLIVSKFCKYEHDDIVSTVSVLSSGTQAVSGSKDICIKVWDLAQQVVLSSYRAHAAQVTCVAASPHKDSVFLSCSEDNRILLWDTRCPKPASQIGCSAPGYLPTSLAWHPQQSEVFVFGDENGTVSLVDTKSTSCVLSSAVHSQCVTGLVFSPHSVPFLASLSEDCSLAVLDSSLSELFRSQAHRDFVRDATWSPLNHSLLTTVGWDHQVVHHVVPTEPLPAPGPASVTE

SMILES	IC50 [nM]
O=C1c2ccc(CN3CCC4(CC3)COC4)cc2OCCN1C[C@H](O)CN1CCc2ccccc2C1 [Example 251, 4-[(2R)-3-(3,4-dihydro-1H-isoquinolin-2-yl)-2-hydroxypropyl]-8-(2-oxa-7-azaspiro[3.5]nonan-7-ylmethyl)-2,3-dihydro-1,4-benzoxazepin-5-one]	100 to 1000
CN1CCN(C[C@H](O)CN2CCc3ccccc3C2)C(=O)c2ccc(CCC(F)(F)F)cc21 [Example 116, 4-[(2R)-3-(3,4-dihydro-1H-isoquinolin-2-yl)-2-hydroxy-propyl]-1-methyl-8-(3,3,3-trifluoropropyl)-2,3-dihydro-1,4-benzodiazepin-5-one]	100 to 1000
O=C(c1ccc2c(c1)OCCN(C[C@H](O)CN1CCc3ccccc3C1)C2=O)C1CCCC1 [Example 217, 8-(cyclopentanecarbonyl)-4-[(2R)-3-(3,4-dihydro-1H-isoquinolin-2-yl)-2-hydroxy-propyl]-2,3-dihydro-1,4-benzoxazepin-5-one]	100 to 1000
O=C1c2ccc(OC3CCN(CCF)CC3F)cc2OCCN1C[C@H](O)CN1CCc2ccccc2C1 (stereo partly drawn) [Example 207, 4-[(2R)-3-(3,4-dihydro-1H-isoquinolin-2-yl)-2-hydroxy-propyl]-8-[[3-fluoro-1-(2-fluoroethyl)-4-piperidyl]oxy]-2,3-dihydro-1,4-benzoxazepin-5-one]	100 to 1000
CC1CN(C(=O)c2ccc3c(c2)OCCN(C[C@H](O)CN2CCc4ccccc4C2)C3=O)CCO1 (stereo partly drawn) [Example 190, 4-[(2R)-3-(3,4-dihydro-1H-isoquinolin-2-yl)-2-hydroxy-propyl]-8-(2-methylmorpholin-4-carbonyl)-2,3-dihydro-1,4-benzoxazepin-5-one]	100 to 1000
O=C1c2ccc(C(=O)N3CC4CCC3C4)cc2OCCN1C[C@H](O)CN1CCc2ccccc2C1 (stereo partly drawn) [Example 188, 8-(2-azabicyclo[2.2.1]heptane-2-carbonyl)-4-[(2R)-3-(3,4-dihydro-1H-isoquinolin-2-yl)-2-hydroxy-propyl]-2,3-dihydro-1,4-benzoxazepin-5-one]	100 to 1000
Cc1ccc2c(c1)OCCN(C[C@H](O)CN1CCc3ccccc3C1)C2=O [Example 10, 4-[(2R)-3-(3,4-dihydro-1H-isoquinolin-2-yl)-2-hydroxy-propyl]-8-methyl-2,3-dihydro-1,4-benzoxazepin-5-one]	100 to 1000
O=C1c2ccc(OS(=O)(=O)C(F)(F)F)cc2CCCN1C[C@H](O)CN1CCc2ccccc2C1 [Example 8, [2-[(2R)-3-(3,4-dihydro-1H-isoquinolin-2-yl)-2-hydroxy-propyl]-1-oxo-4,5-dihydro-3H-2-benzazepin-7-yl]trifluoromethanesulfonate]	100 to 1000
CC1CN(C[C@H](O)CN2CCc3ccccc3C2)C(=O)c2ccc(OC3CCN(C)CC3)cc2O1 (stereo partly drawn) [Example 141, 4-[(2R)-3-(3,4-dihydro-1H-isoquinolin-2-yl)-2-hydroxypropyl]-2-methyl-8-[(1-methyl-4-piperidyl)oxy]-2,3-dihydro-1,4-benzoxazepin-5-one]	1 to 100
O=C1c2ccc(CN3CCCCC3CO)cc2OCCN1C[C@H](O)CN1CCc2ccccc2C1 (stereo partly drawn) [Example 41, 4-[(2R)-3-(3,4-dihydro-1H-isoquinolin-2-yl)-2-hydroxy-propyl]-8-[[2-(hydroxymethyl)-1-piperidyl]methyl]-2,3-dihydro-1,4-benzoxazepin-5-one]	100 to 1000
CCC(=O)N1CC(Oc2ccc3c(c2)OCCN(C[C@H](O)CN2CCc4ccccc4C2)C3=O)C1 [Example 84, 4-[(2R)-3-(3,4-dihydro-1H-isoquinolin-2-yl)-2-hydroxy-propyl]-8-(1-propanoylazetidin-3-yl)oxy-2,3-dihydro-1,4-benzoxazepin-5-one]	100 to 1000
O=C1c2ccc(CN3CCn4cccc4C3)cc2OCCN1C[C@H](O)CN1CCc2ccccc2C1 [Example 249, 4-[(2R)-3-(3,4-dihydro-1H-isoquinolin-2-yl)-2-hydroxypropyl]-8-(3,4-dihydro-1H-pyrrolo[1,2-a]pyrazin-2-ylmethyl)-2,3-dihydro-1,4-benzoxazepin-5-one]	100 to 1000
O=C1c2ccc(CN3CCC(F)(F)C3)cc2OCCN1C[C@H](O)CN1CCc2ccccc2C1 [Example 52, 8-[(3,3-difluoropyrrolidin-1-yl)methyl]-4-[(2R)-3-(3,4-dihydro-1H-isoquinolin-2-yl)-2-hydroxy-propyl]-2,3-dihydro-1,4-benzoxazepin-5-one]	100 to 1000
CC(=O)N1CC(Oc2ccc3c(c2)N(C)CCN(C[C@H](O)CN2CCc4ccccc4C2)C3=O)C1 [Example 122, 8-(1-acetylazetidin-3-yl)oxy-4-[(2R)-3-(3,4-dihydro-1H-isoquinolin-2-yl)-2-hydroxy-propyl]-1-methyl-2,3-dihydro-1,4-benzodiazepin-5-one]	100 to 1000
CC(C)N1CC(Oc2ccc3c(c2)OCCN(C[C@H](O)CN2CCc4ccccc4C2)C3=O)C1 [Example 95, 4-[(2R)-3-(3,4-dihydro-1H-isoquinolin-2-yl)-2-hydroxy-propyl]-8-(1-isopropylazetidin-3-yl)oxy-2,3-dihydro-1,4-benzoxazepin-5-one]	100 to 1000
CCN1CC2(CC(Oc3ccc4c(c3)OCCN(C[C@H](O)CN3CCc5ccccc5C3)C4=O)C2)C1 [Example 172, 4-[(2R)-3-(3,4-dihydro-1H-isoquinolin-2-yl)-2-hydroxy-propyl]-8-[(2-ethyl-2-azaspiro[3.3]heptan-6-yl)oxy]-2,3-dihydro-1,4-benzoxazepin-5-one]	100 to 1000
O=C1c2ccc(OC3CN(C(=O)C4CC4)C3)cc2OCCN1C[C@H](O)CN1CCc2ccccc2C1 [Example 85, 8-[1-(cyclopropanecarbonyl)azetidin-3-yl]oxy-4-[(2R)-3-(3,4-dihydro-1H-isoquinolin-2-yl)-2-hydroxy-propyl]-2,3-dihydro-1,4-benzoxazepin-5-one]	1 to 100
CN1CCC(Oc2ccc3c(c2)N(C)CCN(C[C@H](O)CN2CCc4ccccc4C2)C3=O)C1 (stereo partly drawn) [Example 132, 4-[(2R)-3-(3,4-dihydro-1H-isoquinolin-2-yl)-2-hydroxy-propyl]-1-methyl-8-(1-methylpyrrolidin-3-yl)oxy-2,3-dihydro-1,4-benzodiazepin-5-one]	100 to 1000
CCN1CC(COc2ccc3c(c2)OCCN(C[C@H](O)CN2CCc4ccccc4C2)C3=O)C1 [Example 97, 4-[(2R)-3-(3,4-dihydro-1H-isoquinolin-2-yl)-2-hydroxy-propyl]-8-[(1-ethylazetidin-3-yl)methoxy]-2,3-dihydro-1,4-benzoxazepin-5-one]	100 to 1000
CC1CN(Cc2ccc3c(c2)OCCN(C[C@H](O)CN2CCc4ccccc4C2)C3=O)CCO1 (stereo partly drawn) [Example 30, 4-[(2R)-3-(3,4-dihydro-1H-isoquinolin-2-yl)-2-hydroxy-propyl]-8-[(2-methylmorpholin-4-yl)methyl]-2,3-dihydro-1,4-benzoxazepin-5-one]	1 to 100

More lines, now with the values ahead:

IC50 [nM]	SMILES
1 to 100	C[C@H]1CN(C[C@H](O)CN2CCc3ccccc3C2)C(=O)c2ccc(OC3CCN(CCF)CC3)cc2O1 [Example 202, (2S)-4-[(2R)-3-(3,4-dihydro-1H-isoquinolin-2-yl)-2-hydroxy-propyl]-8-[1-(2-fluoroethyl)-4-piperidyl]oxy-2-methyl-2,3-dihydro-1,4-benzoxazepin-5-one]
1 to 100	CC1(C)CN(C[C@H](O)CN2CCc3ccccc3C2)C(=O)c2ccc(OC3CCN(CCO)CC3)nc2O1 [Example 234, 4-[(2R)-3-(3,4-dihydro-1H-isoquinolin-2-yl)-2-hydroxy-propyl]-8-[[1-(2-hydroxyethyl)-4-piperidyl]oxy]-2,2-dimethyl-3H-pyrido[3,2-f][1,4]oxazepin-5-one]
1 to 100	CC(=O)N1CC2(CC(Oc3ccc4c(c3)OCCN(C[C@H](O)CN3CCc5ccccc5C3)C4=O)C2)C1 [Example 174, 8-[(2-acetyl-2-azaspiro[3.3]heptan-6-yl)oxy]-4-[(2R)-3-(3,4-dihydro-1H-isoquinolin-2-yl)-2-hydroxy-propyl]-2,3-dihydro-1,4-benzoxazepin-5-one]
1 to 100	CC1(O)CCN(Cc2ccc3c(c2)OCCN(C[C@H](O)CN2CCc4ccccc4C2)C3=O)C1 (stereo partly drawn) [Example 40, 4-[(2R)-3-(3,4-dihydro-1H-isoquinolin-2-yl)-2-hydroxy-propyl]-8-[(3-hydroxy-3-methyl-pyrrolidin-1-yl)methyl]-2,3-dihydro-1,4-benzoxazepin-5-one]
1 to 100	O=C1c2ccc(OC3CCOCC3)cc2OCCN1C[C@H](O)CN1CCc2ccccc2C1 [Example 64, 4-[(2R)-3-(3,4-dihydro-1H-isoquinolin-2-yl)-2-hydroxy-propyl]-8-tetrahydropyran-4-yloxy-2,3-dihydro-1,4-benzoxazepin-5-one]
1 to 100	CC(=O)N1CCC(Oc2ccc3c(c2)OC(C)(C)CN(C[C@H](O)CN2CCc4ccccc4C2)C3=O)CC1 [Example 180, 8-[(1-acetyl-4-piperidyl)oxy]-4-[(2R)-3-(3,4-dihydro-1H-isoquinolin-2-yl)-2-hydroxy-propyl]-2,2-dimethyl-3H-1,4-benzoxazepin-5-one]
1 to 100	CC(=O)N1CCC(Oc2ccc3c(c2)OCCN(C[C@H](O)CN2CCc4ccccc4C2)C3=O)CC1 [Example 78, 8-[(1-acetyl-4-piperidyl)oxy]-4-[(2R)-3-(3,4-dihydro-1H-isoquinolin-2-yl)-2-hydroxy-propyl]-2,3-dihydro-1,4-benzoxazepin-5-one]
1 to 100	O=C1c2ccc(CN3CCCC(F)C3)cc2OCCN1C[C@H](O)CN1CCc2ccccc2C1 (stereo partly drawn) [Example 43, 4-[(2R)-3-(3,4-dihydro-1H-isoquinolin-2-yl)-2-hydroxy-propyl]-8-[(3-fluoro-1-piperidyl)methyl]-2,3-dihydro-1,4-benzoxazepin-5-one]
1 to 100	O=C1c2ccc(CN3CCCCC3)cc2OCCN1C[C@H](O)CN1CCc2ccccc2C1 [Example 23, 4-[(2R)-3-(3,4-dihydro-1H-isoquinolin-2-yl)-2-hydroxy-propyl]-8-(1-piperidylmethyl)-2,3-dihydro-1,4-benzoxazepin-5-one]
